Results: ChEMBL document CHEMBL1153245, “A profile of the in vitro anti-tumor activity of imidazolium-based ionic liquids” (2010)

Legend:
Format in all cases: functional
Malme-3M = assay: Anticancer activity against human MALME-3M cells assessed cell growth at 10 uM after 48 hrs by sulforhodamine B assay relative to control
HCT-15 = assay: Anticancer activity against human HCT15 cells assessed cell growth at 10 uM after 48 hrs by sulforhodamine B assay relative to control
SNB-19 = assay: Anticancer activity against human SNB19 cells assessed cell growth at 10 uM after 48 hrs by sulforhodamine B assay relative to control
HT-29 [1] = assay: Anticancer activity against human HT-29 cells assessed cell growth at 10 uM after 48 hrs by sulforhodamine B assay relative to control
BT-549 [2] = assay: Anticancer activity against human BT549 cells assessed cell growth at 10 uM after 48 hrs by sulforhodamine B assay relative to control
SK-MEL-28 = assay: Anticancer activity against human SK-MEL-28 cells assessed cell growth at 10 uM after 48 hrs by sulforhodamine B assay relative to control
NCI-H226 = assay: Anticancer activity against human NCI-H226 cells assessed cell growth at 10 uM after 48 hrs by sulforhodamine B assay relative to control
MCF7 [3] = assay: Anticancer activity against human MCF7 cells assessed cell growth at 10 uM after 48 hrs by sulforhodamine B assay relative to control
UACC-257 = assay: Anticancer activity against human UACC257 cells assessed cell growth at 10 uM after 48 hrs by sulforhodamine B assay relative to control
U-251 [4] = assay: Anticancer activity against human U251 cells assessed cell growth at 10 uM after 48 hrs by sulforhodamine B assay relative to control
MDA-MB-468 = assay: Anticancer activity against human MDA-MB-468 cells assessed cell growth at 10 uM after 48 hrs by sulforhodamine B assay relative to control
SK-MEL-5 = assay: Anticancer activity against human SK-MEL-5 cells assessed cell growth at 10 uM after 48 hrs by sulforhodamine B assay relative to control
SK-MEL-2 = assay: Anticancer activity against human SK-MEL-2 cells assessed cell growth at 10 uM after 48 hrs by sulforhodamine B assay relative to control
MDA-MB-435 = assay: Anticancer activity against human MDA-MB-435 cells assessed cell growth at 10 uM after 48 hrs by sulforhodamine B assay relative to control
SNB-75 = assay: Anticancer activity against human SNB75 cells after 48 hrs by sulforhodamine B assay; details: Homo sapiens, SNB-75, 48 h
NCI/ADR-RES = assay: Anticancer activity against human NCI/ADR-RES cells after 48 hrs by sulforhodamine B assay; details: Homo sapiens, NCI/ADR-RES, 48 h
MDA-MB-231 = assay: Anticancer activity against human MDA-MB-231 cells after 48 hrs by sulforhodamine B assay; details: Homo sapiens, MDA-MB-231, 48 h
HT-29 [5] = assay: Anticancer activity against human HT-29 cells after 48 hrs by sulforhodamine B assay; details: Homo sapiens, HT-29, 48 h
DU-145 = assay: Anticancer activity against human DU145 cells after 48 hrs by sulforhodamine B assay
SF-295 = assay: Anticancer activity against human SF295 cells after 48 hrs by sulforhodamine B assay; details: Homo sapiens, SF-295, 48 h
786-0 = assay: Anticancer activity against human 786-0 cells after 48 hrs by sulforhodamine B assay; details: Homo sapiens, 786-0, 48 h
HL-60(TB) = assay: Anticancer activity against human HL-60(TB) cells after 48 hrs by sulforhodamine B assay; details: Homo sapiens, HL-60, 48 h
UACC-62 = assay: Anticancer activity against human UACC62 cells after 48 hrs by sulforhodamine B assay; details: Homo sapiens, UACC-62, 48 h
ACHN = assay: Anticancer activity against human ACHN cells after 48 hrs by sulforhodamine B assay; details: Homo sapiens, ACHN, 48 h
NCI-H23 = assay: Anticancer activity against human NCI-H23 cells after 48 hrs by sulforhodamine B assay
MCF7 [6] = assay: Anticancer activity against human MCF7 cells after 48 hrs by sulforhodamine B assay; details: Homo sapiens, MCF7, 48 h
LOX IMVI = assay: Anticancer activity against human LOXIMVI cells after 48 hrs by sulforhodamine B assay; details: Homo sapiens, LOX IMVI, 48 h
UO-31 = assay: Anticancer activity against human UO31 cells after 48 hrs by sulforhodamine B assay; details: Homo sapiens, UO-31, 48 h
U-251 [7] = assay: Anticancer activity against human U251 cells after 48 hrs by sulforhodamine B assay; details: Homo sapiens, U-251, 48 h
BT-549 [8] = assay: Anticancer activity against human BT549 cells after 48 hrs by sulforhodamine B assay; details: Homo sapiens, BT-549, 48 h
CCRF-CEM = assay: Anticancer activity against human CCRF-CEM cells after 48 hrs by sulforhodamine B assay
EKVX = assay: Anticancer activity against human EKVX cells after 48 hrs by sulforhodamine B assay; details: Homo sapiens, EKVX, 48 h
SW-620 = assay: Anticancer activity against human SW620 cells after 48 hrs by sulforhodamine B assay
KM12 = assay: Anticancer activity against human KM12 cells after 48 hrs by sulforhodamine B assay
OVCAR-8 = assay: Anticancer activity against human OVCAR8 cells after 48 hrs by sulforhodamine B assay; details: Homo sapiens, OVCAR-8, 48 h
SN12C = assay: Anticancer activity against human SN12C cells after 48 hrs by sulforhodamine B assay; details: Homo sapiens, SN12C, 48 h
CAKI-1 = assay: Anticancer activity against human Caki1 cells after 48 hrs by sulforhodamine B assay; details: Homo sapiens, CAKI-1, 48 h
NCI-H460 = assay: Anticancer activity against human NCI-H460 cells after 48 hrs by sulforhodamine B assay; details: Homo sapiens, NCI-H460, 48 h
HOP-92 = assay: Anticancer activity against human HOP92 cells after 48 hrs by sulforhodamine B assay; details: Homo sapiens, HOP-92, 48 h
OVCAR-3 = assay: Anticancer activity against human OVCAR-3 cells after 48 hrs by sulforhodamine B assay; details: Homo sapiens, OVCAR-3, 48 h
NCI-H322M = assay: Anticancer activity against human NCI-H322M cells after 48 hrs by sulforhodamine B assay; details: Homo sapiens, NCI-H322M, 48 h
[9] = read-out: LC50 (the source's name)

Compound `Cn1cc[n+](Cc2ccccc2)c1.F[P-](F)(F)(F)(F)F` has an Activity (Malme-3M) of 118.68%, an Activity (HCT-15) of 106.14% and an Activity (SNB-19) of 100.88%. It also gave an Activity (HT-29 [1]) of 96.77%, an Activity (BT-549 [2]) of 112.82% and an Activity (SK-MEL-28) of 125.12%. For the same compound, the Activity (NCI-H226) was 99.73%, the Activity (MCF7 [3]) was 102.21% and the Activity (UACC-257) was 106.42%. It also gave an Activity (U-251 [4]) of 101.41%, an Activity (MDA-MB-468) of 101.43% and an Activity (SK-MEL-5) of 104.4%. The Activity (SK-MEL-2) was 108.02% and the Activity (MDA-MB-435) was 117.55%.

For `CCCCCC[n+]1ccn(C)c1.FC(F)(F)C(F)(F)[P-](F)(F)(F)(C(F)(F)C(F)(F)F)C(F)(F)C(F)(F)F`, the Activity (Malme-3M) was 102.23%, the Activity (HCT-15) was 91.62% and the Activity (SNB-19) was 82.22%. The Activity (HT-29 [1]) was 66.89%, the Activity (BT-549 [2]) was 54.78% and the Activity (SK-MEL-28) was 100.39%. For the same compound, the Activity (NCI-H226) was 57.04%, the Activity (MCF7 [3]) was 62.49% and the Activity (UACC-257) was 34.16%. For the same compound, the Activity (U-251 [4]) was 78.65%, the Activity (MDA-MB-468) was 39.66% and the Activity (SK-MEL-5) was 51.37%. The Activity (SK-MEL-2) was 47.53% and the Activity (MDA-MB-435) was 51.22%.

Compound `CCCCCCCC[n+]1ccn(C)c1.F[P-](F)(F)(F)(F)F` has an Activity (Malme-3M) of 62.25%, an Activity (HCT-15) of 97.27% and an Activity (SNB-19) of 82.83%. It also gave an Activity (HT-29 [1]) of 61.42%, an Activity (BT-549 [2]) of 60.35% and an Activity (SK-MEL-28) of 95.95%. The Activity (NCI-H226) was 72.91%, the Activity (MCF7 [3]) was 69.15% and the Activity (UACC-257) was 72.49%. For the same compound, the Activity (U-251 [4]) was 70.41%, the Activity (MDA-MB-468) was 21% and the Activity (SK-MEL-5) was 76.82%. For the same compound, the Activity (SK-MEL-2) was 83.03% and the Activity (MDA-MB-435) was 52.08%.

Compound `COCC[n+]1ccn(C)c1.O=S(=O)([N-]S(=O)(=O)C(F)(F)F)C(F)(F)F` has an Activity (Malme-3M) of 125.61%, an Activity (HCT-15) of 101.44% and an Activity (SNB-19) of 93.88%. For the same compound, the Activity (HT-29 [1]) was 111.85%, the Activity (BT-549 [2]) was 96.44% and the Activity (SK-MEL-28) was 106.63%. The Activity (NCI-H226) was 100.3%, the Activity (MCF7 [3]) was 101.56% and the Activity (UACC-257) was 100.25%. It also gave an Activity (U-251 [4]) of 91.58%, an Activity (MDA-MB-468) of 106.36% and an Activity (SK-MEL-5) of 100.51%. For the same compound, the Activity (SK-MEL-2) was 93.96% and the Activity (MDA-MB-435) was 117.7%.

`CCCCCCCCCCCC[n+]1ccn(C)c1.[Cl-]` showed a GI50 (SNB-75) of 2.74 µM, a CC50 (SNB-75; [9]) of 56.8 µM and a GI50 (NCI/ADR-RES) of 55 µM. For the same compound, the GI50 (MDA-MB-231) was 3.39 µM, the CC50 (MDA-MB-231; [9]) was 63.6 µM and the GI50 (HT-29 [5]) was 2.6 µM. For the same compound, the CC50 (HT-29 [5]; [9]) was over 100 µM, the GI50 (DU-145) was 0.688 µM and the CC50 (DU-145; Homo sapiens, DU-145, 48 h, read-out: LC50 (the source's name)) was over 100 µM. The Activity (Malme-3M) was 24.55%, the GI50 (SF-295) was 2.36 µM and the CC50 (SF-295; [9]) was over 100 µM. For the same compound, the GI50 (786-0) was 3.36 µM, the GI50 (HL-60(TB)) was 0.331 µM and the CC50 (HL-60(TB); [9]) was 7.78 µM. The GI50 (UACC-62) was 3.12 µM, the GI50 (ACHN) was 7.24 µM and the Activity (HCT-15) was 82.04%. The Activity (SNB-19) was 45.54%, the Activity (HT-29 [1]) was 12.35% and the GI50 (NCI-H23) was 0.885 µM. For the same compound, the CC50 (NCI-H23; Homo sapiens, NCI-H23, 48 h, read-out: LC50 (the source's name)) was over 100 µM, the Activity (SK-MEL-28) was 34.86% and the Activity (NCI-H226) was 30.42%. It also gave a GI50 (MCF7 [6]) of 1.69 µM, an Activity (MCF7 [3]) of 3.94% and a GI50 (LOX IMVI) of 1.72 µM. For the same compound, the CC50 (LOX IMVI; [9]) was 45.3 µM, the GI50 (UO-31) was 10.2 µM and the GI50 (U-251 [7]) was 2.15 µM. For the same compound, the CC50 (U-251 [7]; [9]) was over 100 µM, the GI50 (BT-549 [8]) was 1.84 µM and the CC50 (BT-549 [8]; [9]) was 50.8 µM. It also gave a GI50 (CCRF-CEM) of 0.54 µM, a GI50 (EKVX) of 0.873 µM and a CC50 (EKVX; [9]) of over 100 µM. For the same compound, the GI50 (SW-620) was 2.97 µM, the GI50 (KM12; Homo sapiens, KM12, 48 h) was 2.09 µM and the CC50 (KM12; [9]) was 85.8 µM. For the same compound, the Activity (UACC-257) was -12.38%, the GI50 (OVCAR-8) was 2.18 µM and the Activity (U-251 [4]) was 21.74%. It also gave a GI50 (SN12C) of 2.76 µM, a GI50 (CAKI-1) of 1.79 µM and an Activity (MDA-MB-468) of -42.1%. The GI50 (NCI-H460) was 3.39 µM, the GI50 (HOP-92) was 5.3 µM and the CC50 (HOP-92; [9]) was over 100 µM. For the same compound, the Activity (SK-MEL-5) was -33.13%, the Activity (SK-MEL-2) was 13.06% and the Activity (MDA-MB-435) was 7.98%. It also gave a GI50 (OVCAR-3) of 2.84 µM and a GI50 (NCI-H322M) of 22.6 µM.
